Where two headings read alike, the source gives them in different places.
Experiments:
[1] = test system: HCT116 pERK; experiment: Phospho-ERK inhibition, AlphaLISA SureFire Ultra p-ERK 1/2; type: cell-based, human; conditions: for IC50: 1 h treatment; for HCT116 (Ymin %): lowest value of the pERK IC50 curve
Description: (§1) All cancer cell lines (A375, A101D, A2058, RKO, HT29 SK-MEL 30, IPC298, HepG2, HCT-116, Lovo, SW620, SW480, NCI-H358, NCI-H2122, Calu-6, NCIH2087, NCIH1755, NCIH1666 and Mewo) were obtained from ATCC and cultured in RPMI-1640 medium (Gibco) supplemented with 5% heat inactivated fetal bovine serum (FBS, Wisent) at 37° C. under 5% CO2. Cells were maintained in T175 flasks (Greiner). They were passaged by removing the culture medium, washing once in 10 mL of room temperature Phosphate Buffered Saline (PBS; Wisent) and incubating at 37° C. with 2 mL of 0.05% Trypsin (Thermo-Fisher). Trypsin was then inactivated by adding complete growth medium and the cells were then replated in a T175 culture dish at the appropriate dilution. All cell lines were routinely tested for mycoplasma contamination. Tissue type and mutational status of each cell line can be found in Table B.
(§2) AlphaLISA® SureFire® Ultra™ p-ERK ½ (Thr202/Tyr204) analysis was conducted on cells plated in 100 μL of complete RPMI-1640 growth medium in 96-well flat-bottomed transparent dishes (Costar) at a density indicated in Table C. Cells were maintained overnight at 37° C. under 5% CO2 before treatment with compounds' dilution series for one hour. The cell density in cells/cm^2 corresponds to cell number divided by the area of one well of a 96-well plate ([…]).
(§3) In a dilution series 100 μL/well of test substance dilution prepared in complete RPMI-1640 growth media was added to the cells. The dilution series is selected so that ten concentrations cover a range from 30 μM or 10 μM to 0.33 nM. If necessary, the initial concentration of 10 μM is increased to 100 μM or lowered to 1 μM (as in the case of A375 and NCIH1666 cells, which are generally more sensitive to the compounds) and further dilution is carried out accordingly. The final concentration of DMSO in the assay is set at 0.5%.
(§4) After treatment, media was removed, and cells were lysed in 50 μL of 1× AlphaScreen Ultra Lysis Buffer (Perkin Elmer). The AlphaLISA® SureFire® Ultra™ p-ERK ½ (Thr202/Tyr2O4) (PerkinElmer) reactions were performed with 5 μL of cell lysate according to the manufacturer's specifications in 384-well proxyplates (Perkin Elmer) followed by overnight incubation of the reactions at room temperature in a humidified chamber. After completion of the reactions, the signals were recorded on an EnVision plate reader (Perkin Elmer) using built in AlphaLISA® settings.
(§5) The effect of each compound dilution on the pERK signal was expressed in % inhibition and calculated as follows. An internal 100% inhibition control (1 μM trametinib, cat. No. HY-10999; MedChem Express; CAS No. 871700-17-3) was included in each plate and used as a measure of pERK background. First, the value obtained for trametinib was subtracted from each data point. The average of DMSO (vehicle) controls (set as 0% inhibition) was established and used to calculate % inhibition:
(§6) The ability of each compound to inhibit pERK signal was expressed as an IC50 value obtained by plotting the inhibition values for each data point of a dilution series and fitting the obtained curves using a log(agonist) versus response−variable slope (four parameters) function using GraphPadPrism (V7.0).
(§7) When present, paradoxical pERK induction is inferred from the negative % inhibition values observed in the pERK IC50 curves of a compound.

[2] = test system: SW480 pERK; experiment: as above; type: cell-based, human; conditions: for IC50: 1 h treatment, read-out: SW480 PERK IC50; for SW480 (Ymin %): lowest value of the pERK IC50 curve
Description: as §1, §2, §3, §4, §5, §6, §7

Row | IC50 ([1]; Table 3) [µM] | IC50 ([2]; Table 3) [µM] | IC50 ([1]; Table 4) [µM] | IC50 ([2]; Table 4) [µM] | SMILES | HCT116 (Ymin %) ([1]; Table 3) [%] | SW480 (Ymin %) ([2]; Table 3) [%] | HCT116 (Ymin %) ([1]; Table 4) [%] | SW480 (Ymin %) ([2]; Table 4) [%]
1 | 10 to 30 | 10 to 30 |  |  | COc1ccc(S(=O)(=O)Nc2ccc(F)c(Nc3ncnc4cnc(N5CCC5)nc34)c2F)cc1 [Example 43] | 11 | 0 |  | 
2 | 1 to 10 | 1 to 10 |  |  | COc1ccc(S(=O)(=O)Nc2ccc(F)c(Nc3ncnc4cnc(N5CC[C@H](F)C5)nc34)c2F)c(F)c1 [Example 44] | −2 | 12 |  | 
3 | 1 to 10 | 1 to 10 |  |  | COc1ccc(S(=O)(=O)Nc2ccc(F)c(Nc3ncnc4cnc(-n5cnc6ccccc65)nc34)c2F)c(F)c1 [Example 45] | 11 | −8 |  | 
4 | 10 to 30 | 10 to 30 |  |  | COc1ccc(S(=O)(=O)Nc2ccc(F)c(Nc3ncnc4cnc(OC)nc34)c2F)cc1 [Example 46] | 8 | 12 |  | 
5 | 1 to 10 | 1 to 10 |  |  | COc1ccc(S(=O)(=O)Nc2ccc(F)c(Nc3ncnc4cnc(N5CC(F)C5)nc34)c2F)cc1 [Example 47] | 6 | −1 |  | 
6 | 1 to 10 | 1 to 10 |  |  | COc1ccc(S(=O)(=O)Nc2ccc(F)c(Nc3ncnc4cnc(N5CC(F)(F)C5)nc34)c2F)cc1 [Example 48] | 13 | 6 |  | 
7 | 10 to 30 | 10 to 30 |  |  | COc1ccc(S(=O)(=O)Nc2ccc(F)c(Nc3ncnc4cnc(Oc5cccc(C#N)c5)nc34)c2F)cc1 [Example 49] | 8 | −9 |  | 
8 | 1 to 10 | 1 to 10 |  |  | COc1ccc(S(=O)(=O)Nc2ccc(F)c(Nc3ncnc4cnc(N5CC(F)(F)C5)nc34)c2F)c(F)c1 [Example 50] | 8 | −9 |  | 
9 | 1 to 10 | 1 to 10 |  |  | COc1ccc(S(=O)(=O)Nc2ccc(F)c(Nc3ncnc4cnc(N5CC(F)C5)nc34)c2F)c(F)c1 [Example 52] | −4 | −8 |  | 
10 | 1 to 10 | 1 to 10 |  |  | COc1ccc(S(=O)(=O)Nc2ccc(F)c(Nc3ncnc4cnc(-n5cnc(C)c5C)nc34)c2F)c(F)c1 [Example 53] | 15 | −4 |  | 
11 | 10 to 30 | 10 to 30 |  |  | COc1ccc(S(=O)(=O)Nc2ccc(F)c(Nc3ncnc4cnc(Oc5cccc(N)c5)nc34)c2F)cc1 [Example 54] | −7 | 8 |  | 
12 | 1 to 10 | 1 to 10 |  |  | COc1ccc(S(=O)(=O)Nc2ccc(F)c(Nc3ncnc4cnc(-n5cnc6ccccc65)nc34)c2F)c(C)c1 [Example 55] | −4 | −2 |  | 
13 | 1 to 10 | 1 to 10 |  |  | COc1ccc(S(=O)(=O)Nc2ccc(F)c(Nc3ncnc4cnc(-n5cnc(C)c5C)nc34)c2F)c(C)c1 [Example 56] | −10 | 4 |  | 
14 | 0.5 to 1 | 0.5 to 1 |  |  | CO[C@@H]1CCN(S(=O)(=O)Nc2ccc(F)c(Nc3ncnc4cnc(-n5cnc6ccccc65)nc34)c2F)C1 [Example 59] | 11 | 2 |  | 
15 | 1 to 10 | 1 to 10 |  |  | CO[C@@H]1CCN(S(=O)(=O)Nc2ccc(F)c(Nc3ncnc4cnc(N5CC[C@H](F)C5)nc34)c2F)C1 [Example 60] | 9 | 15 |  | 
16 | 1 to 10 | 1 to 10 |  |  | O=S(=O)(Nc1ccc(F)c(Nc2ncnc3cnc(N4CC[C@H](F)C4)nc23)c1F)c1ccc(Cl)cc1Cl [Example 61] | 11 | 9 |  | 
17 | 1 to 10 | 1 to 10 |  |  | O=S(=O)(Nc1ccc(F)c(Nc2ncnc3cnc(-n4cnc5ccccc54)nc23)c1F)c1ccc2c(c1)CCO2 [Example 64] | 2 | 19 |  | 

Row | IC50 ([1]; Table 3) [µM] | IC50 ([2]; Table 3) [µM] | IC50 ([1]; Table 4) [µM] | IC50 ([2]; Table 4) [µM] | SMILES | HCT116 (Ymin %) ([1]; Table 3) [%] | SW480 (Ymin %) ([2]; Table 3) [%] | HCT116 (Ymin %) ([1]; Table 4) [%] | SW480 (Ymin %) ([2]; Table 4) [%]
18 | 1 to 10 | 1 to 10 |  |  | Cc1ncn(-c2ncc3ncnc(Nc4c(F)ccc(NS(=O)(=O)c5ccc6c(c5)CCO6)c4F)c3n2)c1C [Example 65] | 4 | 5 |  | 
19 | 10 to 30 | 1 to 10 |  |  | O=S(=O)(Nc1ccc(F)c(Nc2ncnc3cnc(N4CC[C@H](F)C4)nc23)c1F)c1ccc2c(c1)CCO2 [Example 66] | 10 | 0 |  | 
20 | 1 to 10 | 1 to 10 |  |  | CO[C@@H]1CCN(S(=O)(=O)Nc2ccc(F)c(Nc3ncnc4cnc(N5Cc6ccccc6C5)nc34)c2F)C1 [Example 67] | 6 | 18 |  | 
21 | 1 to 10 | 1 to 10 |  |  | CO[C@@H]1CCN(S(=O)(=O)Nc2ccc(F)c(Nc3ncnc4cnc(-n5ccc6ccccc65)nc34)c2F)C1 [Example 68] | 17 | 0 |  | 
22 | 1 to 10 | 1 to 10 |  |  | COCC1CCN(S(=O)(=O)Nc2ccc(F)c(Nc3ncnc4cnc(-n5cnc6ccccc65)nc34)c2F)C1 (stereo not drawn) [Example 70] | 0 | 1 |  | 
23 | 1 to 10 | 1 to 10 |  |  | CO[C@@H]1CCN(S(=O)(=O)Nc2ccc(F)c(Nc3ncnc4cnc(-n5ccc6cccnc65)nc34)c2F)C1 [Example 71] | 8 | −4 |  | 
24 | 1 to 10 | 1 to 10 |  |  | CO[C@@H]1CCN(S(=O)(=O)Nc2ccc(F)c(Nc3ncnc4cnc(-n5nnc6ccccc65)nc34)c2F)C1 [Example 72] | 20 | 1 |  | 
25 | 1 to 10 | 1 to 10 |  |  | CC1CCN(S(=O)(=O)Nc2ccc(F)c(Nc3ncnc4cnc(-n5cnc6ccccc65)nc34)c2F)C1 (stereo not drawn) [Example 73] | −2 | 7 |  | 
26 | 1 to 10 | 1 to 10 |  |  | O=S(=O)(Nc1ccc(F)c(Nc2ncnc3cnc(-n4cnc5ccccc54)nc23)c1F)N1CC2CC2C1 (stereo not drawn) [Example 74] | −3 | −7 |  | 
27 | 1 to 10 | 1 to 10 |  |  | O=S(=O)(Nc1ccc(F)c(Nc2ncnc3cnc(-n4cnc5ccccc54)nc23)c1F)N1CCC(CCl)C1 (stereo not drawn) [Example 75] | −10 | −6 |  | 
28 | 1 to 10 | 1 to 10 |  |  | CCC1CCN(S(=O)(=O)Nc2ccc(F)c(Nc3ncnc4cnc(-n5cnc6ccccc65)nc34)c2F)C1 (stereo not drawn) [Example 76] | −1 | −9 |  | 
29 | 1 to 10 | 1 to 10 |  |  | O=S(=O)(Nc1ccc(F)c(Nc2ncnc3cnc(-n4cnc5ccccc54)nc23)c1F)N1CCCC1 [Example 77] | −4 | −4 |  | 
30 | 1 to 10 | 0.5 to 1 |  |  | O=S(=O)(Nc1ccc(F)c(Nc2ncnc3cnc(-n4cnc5ccccc54)nc23)c1F)N1CCC(OC(F)F)C1 (stereo not drawn) [Example 78] | 6 | 10 |  | 
31 | 0.5 to 1 | < 0.5 |  |  | COc1ccc(S(=O)(=O)Nc2ccc(F)c(Nc3ncnc4cnc(-n5cnc6c(N)cccc65)nc34)c2F)c(F)c1 [Example 79] | −6 | −2 |  | 
32 |  |  | 10 to 30 | 1 to 10 | COc1ccc(S(=O)(=O)Nc2ccc(F)c(Nc3ncnc4c(N)nc(-n5cnc(C)c5C)nc34)c2F)cc1 [Example 85] |  |  | 8 | 4
33 |  |  | 1 to 10 | 1 to 10 | COc1ccc(S(=O)(=O)Nc2ccc(F)c(Nc3ncnc4c(N)nc(-n5cnc(C)c5C)nc34)c2F)c(C)c1 [Example 86] |  |  | 8 | 3

— patent US20240239801A1, “PYRIMIDO[5,4,D]PYRIMIDINE COMPOUNDS, COMPOSITIONS COMPRISING THEM AND USES THEREOF” (Université de Montréal, priority 2021, published 2024)
